Test results taken from ChEMBL document CHEMBL5150064 (J Med Chem, 2022).
In brackets after ≈: the same amount, converted by molar mass. Activity calls are given as the source filed them. The rule behind the calls is not given here.

Tests used:
[1] = Lipophilicity, logD of compound in 1-Octanol/PBS at pH 7.4 by LC-MS/MS method; assay type: physicochemical
[2] = biological target: Phosphatidylinositol 4,5-bisphosphate 3-kinase catalytic subunit alpha isoform (Homo sapiens, UniProt P42336); assay: Inhibition of PI3Kalpha (unknown origin) using PIP2:3PS as substrate in presence of ATP measured after 120 mins by ADP-Glo assay
Homo sapiens [3] = organism: Homo sapiens; assay: Selectivity ratio of Ki for PI3Kdelta (unknown origin) to Ki for PI3Kalpha (unknown origin)
[4] = Kinetic solubility of the compound at pH 7.4; assay type: physicochemical; conditions: buffer, read-out: Kinetic_solubility
[5] = biological target: T1, Phosphatidylinositol 4,5-bisphosphate 3-kinase catalytic subunit delta isoform (Homo sapiens) (UniProt O00329); assay: Inhibition of PI3Kdelta in human B-cells assessed as reduction in CD69 expression preincubated for 1 hr followed by IgM stimulation for 18 hrs by flow cytometry analysis; assay type: cell-based; conditions: B-cell
T1 sequence (whole entry): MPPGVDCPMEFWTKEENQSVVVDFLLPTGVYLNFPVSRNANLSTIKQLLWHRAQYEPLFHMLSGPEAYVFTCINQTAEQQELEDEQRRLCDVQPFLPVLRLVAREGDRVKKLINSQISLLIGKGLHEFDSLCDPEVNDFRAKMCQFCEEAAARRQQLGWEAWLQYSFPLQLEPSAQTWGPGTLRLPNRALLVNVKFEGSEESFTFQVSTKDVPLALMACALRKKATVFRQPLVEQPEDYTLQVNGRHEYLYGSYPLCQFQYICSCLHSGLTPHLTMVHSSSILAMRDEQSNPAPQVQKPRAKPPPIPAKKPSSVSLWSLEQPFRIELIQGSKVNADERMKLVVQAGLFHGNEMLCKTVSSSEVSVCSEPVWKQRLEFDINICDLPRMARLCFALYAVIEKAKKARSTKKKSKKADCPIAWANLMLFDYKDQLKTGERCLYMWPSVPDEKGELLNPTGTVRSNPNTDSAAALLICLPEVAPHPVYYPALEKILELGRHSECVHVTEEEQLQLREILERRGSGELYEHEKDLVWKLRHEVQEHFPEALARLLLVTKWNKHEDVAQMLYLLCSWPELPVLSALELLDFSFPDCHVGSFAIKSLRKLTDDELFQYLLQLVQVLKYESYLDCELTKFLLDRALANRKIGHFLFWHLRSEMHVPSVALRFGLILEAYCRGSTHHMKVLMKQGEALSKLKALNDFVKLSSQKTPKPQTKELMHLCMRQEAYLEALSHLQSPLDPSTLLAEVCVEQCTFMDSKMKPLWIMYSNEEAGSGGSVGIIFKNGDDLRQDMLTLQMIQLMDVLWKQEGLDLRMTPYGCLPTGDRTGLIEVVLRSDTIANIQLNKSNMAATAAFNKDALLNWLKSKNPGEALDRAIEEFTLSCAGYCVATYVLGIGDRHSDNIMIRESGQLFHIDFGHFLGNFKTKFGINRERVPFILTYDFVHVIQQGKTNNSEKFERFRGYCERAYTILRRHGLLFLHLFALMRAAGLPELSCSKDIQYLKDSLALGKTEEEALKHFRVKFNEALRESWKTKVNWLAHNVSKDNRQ

[6] = Clearance in Sprague-Dawley rat plasma at 1 mg/kg, iv measured upto 8 hrs by LC-MS/MS analysis; assay type: ADME, organism-based
[7] = test system: Phosphatidylinositol 4,5-bisphosphate 3-kinase catalytic subunit alpha isoform (Homo sapiens), P42336 [H1047R]; assay: Induction of P110alpha H1047R mutant degradation in human HCC1954 cells at 0.012 to 1 uM after 24 hrs; assay type: cell-based; conditions: dose 0.012-1 µM
Homo sapiens [8] = organism: Homo sapiens; assay: Selectivity ratio of IC90 for inhibition of PI3Kdelta in human B-cells assessed as reduction in CD69 expression to EC50 for inhibition of PI3Kalpha H1047R mutant in human HCC1954 cells; assay type: cell-based
[9] = test system: Phosphatidylinositol 4,5-bisphosphate 3-kinase catalytic subunit alpha isoform (Homo sapiens), P42336 [H1047R]; assay: Inhibition of PI3Kalpha H1047R mutant in human HCC1954 cells assessed as reduction in PRAS40 phosphorylation after 24 hrs by electrochemiluminescent assay
[10] = Apparent permeability across apical to basolateral side in MDCK cells at 10 uM measured upto 180 mins by LC-MS/MS method; assay type: ADME, cell-based, Canis lupus familiaris; conditions: dog
[11] = Oral bioavailability in Sprague-Dawley rat plasma at 5 mg/kg measured upto 8 hrs by LC-MS/MS method; assay type: ADME, organism-based
Homo sapiens [12] = organism: Homo sapiens; assay: Selectivity ratio of EC50 for PI3Kalpha H1047R mutant in human HCC1954 cells assessed as reduction in PRAS40 phosphorylation to EC50 for wild type PI3Kalpha in human HDQ-P1 cells assessed as reduction in PRAS40 phosphorylation; assay type: cell-based
[13] = biological target: Phosphatidylinositol 4,5-bisphosphate 3-kinase catalytic subunit alpha isoform (Homo sapiens, UniProt P42336, H1047R)
Phosphatidylinositol 4,5-bisphosphate 3-kinase catalytic subunit alpha isoform (Homo sapiens, UniProt P42336, H1047R), sequence (P42336 whole entry H1047R, canonical isoform): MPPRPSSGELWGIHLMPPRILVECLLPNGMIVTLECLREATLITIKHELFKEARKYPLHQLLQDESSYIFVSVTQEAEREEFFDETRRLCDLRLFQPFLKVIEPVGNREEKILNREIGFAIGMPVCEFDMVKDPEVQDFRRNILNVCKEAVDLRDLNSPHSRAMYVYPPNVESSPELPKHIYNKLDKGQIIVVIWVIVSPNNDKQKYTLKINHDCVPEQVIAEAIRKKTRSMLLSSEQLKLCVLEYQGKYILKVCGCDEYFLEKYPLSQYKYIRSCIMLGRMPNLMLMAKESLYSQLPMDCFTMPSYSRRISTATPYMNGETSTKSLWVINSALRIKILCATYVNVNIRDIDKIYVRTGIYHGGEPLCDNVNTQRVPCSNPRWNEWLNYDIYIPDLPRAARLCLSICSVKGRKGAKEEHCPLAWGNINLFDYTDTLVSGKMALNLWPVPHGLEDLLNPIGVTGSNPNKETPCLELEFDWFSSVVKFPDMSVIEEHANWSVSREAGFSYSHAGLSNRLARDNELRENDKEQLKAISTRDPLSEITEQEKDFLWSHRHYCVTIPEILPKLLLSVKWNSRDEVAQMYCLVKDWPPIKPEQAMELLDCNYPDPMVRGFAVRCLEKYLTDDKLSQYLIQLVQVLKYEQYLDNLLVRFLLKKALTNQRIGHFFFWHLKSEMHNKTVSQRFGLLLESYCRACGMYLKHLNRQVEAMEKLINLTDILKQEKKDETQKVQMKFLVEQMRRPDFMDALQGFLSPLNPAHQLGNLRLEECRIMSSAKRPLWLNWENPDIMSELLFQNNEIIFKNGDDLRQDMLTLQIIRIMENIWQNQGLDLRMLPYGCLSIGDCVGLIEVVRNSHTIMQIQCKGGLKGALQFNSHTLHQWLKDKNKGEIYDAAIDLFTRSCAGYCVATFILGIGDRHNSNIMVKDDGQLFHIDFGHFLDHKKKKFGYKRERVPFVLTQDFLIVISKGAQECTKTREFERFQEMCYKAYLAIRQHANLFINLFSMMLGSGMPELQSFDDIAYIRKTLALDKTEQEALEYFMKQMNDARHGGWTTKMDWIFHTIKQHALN

Phosphatidylinositol 4,5-bisphosphate 3-kinase catalytic subunit alpha isoform (Homo sapiens), P42336 [H1047R], sequence (P42336 whole entry H1047R, canonical isoform): as above
Phosphatidylinositol 4,5-bisphosphate 3-kinase catalytic subunit alpha isoform (Homo sapiens, UniProt P42336), sequence (P42336 whole entry, canonical isoform): as the sequence (P42336 whole entry H1047R, canonical isoform) above, with R1047H counted along it

Structure (SMILES)	logD [1]	Ki [2] [nM]	Ratio Ki (Homo sapiens [3])	solubility kinetic [4] [µM]	IC90 [5] [nM]	clearance [6] [mL/min/kg]	Activity [7]	Selectivity ratio (Homo sapiens [8])	inhibition [9]	Papp A→B at 3 h, 10 µM [10] [×10⁻⁶ cm/s]	bioavailability [11] [%]	Ratio EC50 (Homo sapiens [12])	EC50 [13] [nM]
C[C@@H]1CN(c2cn3c(n2)-c2ccc(N4CCC[C@H]4C(N)=O)cc2OCC3)C(=O)O1	1.1	11.5	15	52 (≈ 20.7 µg/mL)	–	–	–	–	–	–	–	–	–
Cc1nc(-c2cn3c(n2)-c2ccc(-c4cnn(C(C)(C)C(N)=O)c4)cc2OCC3)n(C(C)C)n1 [TASELISIB]	2.3	–	–	–	3.1	–	–	–	–	–	–	–	–
C[C@H]1CN(c2cn3c(n2)-c2ccc(N4CCC[C@H]4C(N)=O)cc2OCC3)C(=O)O1	1.1	6.49	6	20 (≈ 7.95 µg/mL)	–	–	–	–	–	–	–	–	–
NC(=O)[C@@H]1CCCN1c1ccc2c(c1)OCCn1cc(N3C(=O)OC[C@H]3C(F)F)nc1-2	1.3	–	34	11 (≈ 4.77 µg/mL)	103	41	Active	6.4	Active	4.3	35	–	–
NC(=O)[C@@H]1CCCN1c1ccc2c(c1)OCCn1cc(N3CCOC3=O)nc1-2	0.6	5.75	15	200 (≈ 76.7 µg/mL)	–	–	–	–	–	3.1	–	–	–
CO[C@@H]1CCN(c2ccc3c(c2)OCCn2cc(N4C(=O)OC[C@H]4C(F)(F)F)nc2-3)[C@@H]1C(N)=O	–	0.097	27	–	–	–	–	–	–	–	–	–	–
COC[C@@H]1COC(=O)N1c1cn2c(n1)-c1ccc(N3CCC[C@H]3C(N)=O)cc1OCC2	0.8	3.24	8	137 (≈ 58.6 µg/mL)	–	–	–	–	–	–	–	–	–
C[C@H](Oc1ccc2c(c1)OCCn1cc(-c3nc(CO)nn3CC(F)(F)F)nc1-2)C(N)=O	1.5	0.062	15	–	–	50	–	–	–	1.5	5	9.5	39
NC(=O)[C@@H](Nc1ccc2c(c1)OCCn1cc(N3C(=O)OC[C@H]3C(F)F)nc1-2)C1CC1	1.2	–	–	–	307	67	Active	–	–	3.2	41	–	28
C[C@H](Nc1ccc2c(c1)OCCn1cc(N3C(=O)OC[C@H]3C(F)(F)F)nc1-2)C(N)=O	0.9	0.095	171	–	–	57	–	–	–	1	65	2.7	49
NC(=O)[C@@H]1COCCN1c1ccc2c(c1)OCCn1cc(N3C(=O)OC[C@H]3C(F)(F)F)nc1-2	–	2.97	13	–	–	–	–	–	–	–	–	–	–
CC(C)n1nc(N)nc1-c1cn2c(n1)-c1ccc(O[C@@H](C)C(N)=O)cc1OCC2	1.1	0.107	17	–	–	–	–	–	–	0.5	–	3.1	65
NC(=O)[C@@H]1CCCN1c1ccc2c(c1)OCCn1cc(N3CCOCC3=O)nc1-2	0.7	2.52	8	65 (≈ 25.8 µg/mL)	–	–	–	–	–	–	–	–	–
CC(C)n1nc(N)nc1-c1cn2c(n1)-c1ccc(N3CCC[C@H]3C(N)=O)cc1OCC2	1.5	0.026	8	92 (≈ 38.9 µg/mL)	–	–	–	–	–	0.3	–	–	–
NC(=O)[C@@H]1CCCN1c1ccc2c(c1)OCCn1cc(N3C(=O)OC[C@H]3C(F)(F)F)nc1-2	1.4	0.15	15	130 (≈ 58.7 µg/mL)	–	35	Active	–	–	3.2	57	–	40
CC(C)n1ncnc1-c1cn2c(n1)-c1ccc(O[C@@H](C)C(N)=O)cc1OCC2	1.9	–	–	–	147	–	–	–	–	–	–	–	–
CC(C)[C@@H]1COC(=O)N1c1cn2c(n1)-c1ccc(N3CCC[C@H]3C(N)=O)cc1OCC2	1.8	0.042	22	131 (≈ 55.7 µg/mL)	–	–	–	–	–	8.4	–	–	–
